Active and inactive are the calls of the source. The rule behind the calls is not given here.

The nature of series [1]: Plasma concentration in CD-1 mouse at 20 mg/kg measured after 1 hrs by LC-MS/MS analysis. The series is classed as ADME, organism-based.
Another series has as its system Mus musculus. Nature of the series: Inhibition of LPS-induced endotoxic shock in C57BL/6 mouse model serum assessed as decrease in IL-1beta level at 10 mg/kg, ip pretreated for 1 hr followed by LPS addition measured after 12 hrs. The class given is functional, organism-based. As to conditions: time 13.0 hrs.
The target of series [2] is T1, Protein deacetylase HDAC6 (Homo sapiens) (UniProt Q9UBN7).
T1 sequence (whole entry): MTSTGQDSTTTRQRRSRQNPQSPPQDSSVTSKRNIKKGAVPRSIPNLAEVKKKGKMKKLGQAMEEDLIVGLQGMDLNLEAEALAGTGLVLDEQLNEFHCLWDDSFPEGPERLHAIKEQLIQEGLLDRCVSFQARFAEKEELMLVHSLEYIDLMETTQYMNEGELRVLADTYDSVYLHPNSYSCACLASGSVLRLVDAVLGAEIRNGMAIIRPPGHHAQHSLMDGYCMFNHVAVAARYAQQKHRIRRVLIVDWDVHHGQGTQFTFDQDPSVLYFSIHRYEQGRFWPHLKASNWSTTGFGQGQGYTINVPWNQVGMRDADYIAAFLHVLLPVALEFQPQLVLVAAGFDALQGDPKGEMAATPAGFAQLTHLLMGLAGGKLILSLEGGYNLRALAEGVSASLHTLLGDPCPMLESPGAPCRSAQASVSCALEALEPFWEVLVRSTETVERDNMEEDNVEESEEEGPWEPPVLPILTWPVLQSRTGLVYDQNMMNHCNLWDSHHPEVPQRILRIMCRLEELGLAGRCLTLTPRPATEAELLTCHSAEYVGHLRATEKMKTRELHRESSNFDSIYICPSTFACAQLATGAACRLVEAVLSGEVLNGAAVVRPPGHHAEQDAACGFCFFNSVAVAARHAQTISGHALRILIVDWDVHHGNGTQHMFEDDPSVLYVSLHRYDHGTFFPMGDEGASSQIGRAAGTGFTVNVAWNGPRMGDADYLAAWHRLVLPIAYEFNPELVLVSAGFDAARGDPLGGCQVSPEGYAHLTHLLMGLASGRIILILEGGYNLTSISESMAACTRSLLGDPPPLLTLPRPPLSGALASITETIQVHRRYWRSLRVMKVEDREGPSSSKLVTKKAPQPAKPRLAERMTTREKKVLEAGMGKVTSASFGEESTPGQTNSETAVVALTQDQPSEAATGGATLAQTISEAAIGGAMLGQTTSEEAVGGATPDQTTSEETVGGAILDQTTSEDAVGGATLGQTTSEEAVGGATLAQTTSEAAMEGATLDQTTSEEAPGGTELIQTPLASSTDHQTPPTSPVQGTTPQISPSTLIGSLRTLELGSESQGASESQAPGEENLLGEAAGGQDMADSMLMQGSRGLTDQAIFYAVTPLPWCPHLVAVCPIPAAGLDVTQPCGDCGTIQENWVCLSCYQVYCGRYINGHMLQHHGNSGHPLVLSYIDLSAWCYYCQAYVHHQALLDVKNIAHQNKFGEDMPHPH
Nature of the series: Inhibition of full length recombinant human HDAC6 in MV4-11 cells assessed as accumulation of acetylated alpha-tubulin at 0.1 to 1 uM measured upto 24 hrs by western blot analysis. The series is classed as cell-based. As to conditions: dose 0.1-1 µM, DDE = dose-dependent effect.

A further series deals with NCM460. Briefly: Cytotoxicity against human NCM460 cells assessed as reduction in cell viability at 100 uM measured after 48 hrs by spectrophotometric analysis. The series is classed as toxicity, cell-based. As to conditions: ncm460, 48 h.
Series [3] in a line: Plasma concentration in CD-1 mouse at 20 mg/kg measured after 2 hrs by LC-MS/MS analysis. The class given is ADME, organism-based.
Series [4] can be described thus: Cmax in CD-1 mouse at 5 mg/kg, iv measured after 0.083 to 24 hrs by LC-MS/MS analysis. The series is classed as ADME, organism-based. The arrangement: dose 5 mg/kg, time 0.083-24 hrs, route iv. As to conditions: in vivo.
In a further series the target is Histone deacetylase 9 (Homo sapiens, UniProt Q9UKV0). Nature of the series: Inhibition of recombinant HDAC9 (unknown origin) using Boc-Lys (trifluoroacetyl) AMC as substrate preincubated for 1 hr followed by substrate addition and measured after 2 hrs by fluorescence based microplate reader analysis.
Series [5] in a line: AUC(0 to infinity) in CD-1 mouse at 5 mg/kg, iv measured after 0.083 to 24 hrs by LC-MS/MS analysis. The series is classed as ADME, organism-based. The arrangement: dose 5 mg/kg, time upper 24 hrs, time lower 0.083 hrs, route iv. The settings on record: in vivo.
A short description of series [6]: Plasma concentration in CD-1 mouse at 20 mg/kg measured after 4 hrs by LC-MS/MS analysis. The class given is ADME, organism-based.
Series [7] is described as follows: Inhibition of HDAC11(unknown origin) preincubated for 1 hr followed by substrate addition and measured after 2 hrs by fluorescence based microplate reader analysis. The arrangement: species or system Homo sapiens.
The target of the next series is Histone deacetylase 2 (Homo sapiens, UniProt Q92769). Briefly: Binding affinity to recombinant HDAC2 (unknown origin) assessed as inhibition constant using Boc-Lys(acetyl)-AMC as substrate preincubated for 1 hr followed by substrate addition and measured after 2 hrs by fluorescence based microplate reader analysis.
Another series deals with Histone deacetylase 5 (Homo sapiens, UniProt Q9UQL6). Nature of the series: Inhibition of recombinant HDAC5 (unknown origin) using Boc-Lys (trifluoroacetyl) AMC as substrate preincubated for 1 hr followed by substrate addition and measured after 2 hrs by fluorescence based microplate reader analysis.
A short description of series [8]: Brain concentration in CD-1 mouse at 20 mg/kg measured after 2 hrs by LC-MS/MS analysis. As to conditions: read-out: Ct. The class given is ADME, organism-based.
Series [9] is described as follows: Ratio of drug concentration in brain to plasma of CD-1 mouse measured after 2 hrs by LC-MS/MS analysis. The series is classed as ADME. The settings on record: read-out: BPR.
The target in series [10] is T2, Protein deacetylase HDAC6 (Homo sapiens, UniProt Q9UBN7).
T2 sequence (Q9UBN7 whole entry): T1 sequence (whole entry)
Nature of the series: Inhibition of recombinant HDAC6 (unknown origin) using Boc-Lys(acetyl)-AMC as substrate preincubated for 120 mins followed by substrate addition and measured after 2 hrs by fluorescence based microplate reader analysis.

The target in series [11] is T2, Protein deacetylase HDAC6. Nature of the series: Inhibition of recombinant HDAC6 (unknown origin) using Boc-Lys(acetyl)-AMC as substrate preincubated for 30 mins followed by substrate addition and measured after 2 hrs by fluorescence based microplate reader analysis.
Another series deals with J774.A1. Briefly: Inhibition of NLRP3 inflammasome activation in mouse J774.A1 cells assessed as cleavage of pro-caspase 1 to p20 measured at 5 to 20 microM after […] by Western blot analysis. The class given is functional, cell-based. As to conditions: dose 5-20 µM, DDE = dose-dependent effect.

Histone deacetylase 5, sequence (Q9UQL6 whole entry): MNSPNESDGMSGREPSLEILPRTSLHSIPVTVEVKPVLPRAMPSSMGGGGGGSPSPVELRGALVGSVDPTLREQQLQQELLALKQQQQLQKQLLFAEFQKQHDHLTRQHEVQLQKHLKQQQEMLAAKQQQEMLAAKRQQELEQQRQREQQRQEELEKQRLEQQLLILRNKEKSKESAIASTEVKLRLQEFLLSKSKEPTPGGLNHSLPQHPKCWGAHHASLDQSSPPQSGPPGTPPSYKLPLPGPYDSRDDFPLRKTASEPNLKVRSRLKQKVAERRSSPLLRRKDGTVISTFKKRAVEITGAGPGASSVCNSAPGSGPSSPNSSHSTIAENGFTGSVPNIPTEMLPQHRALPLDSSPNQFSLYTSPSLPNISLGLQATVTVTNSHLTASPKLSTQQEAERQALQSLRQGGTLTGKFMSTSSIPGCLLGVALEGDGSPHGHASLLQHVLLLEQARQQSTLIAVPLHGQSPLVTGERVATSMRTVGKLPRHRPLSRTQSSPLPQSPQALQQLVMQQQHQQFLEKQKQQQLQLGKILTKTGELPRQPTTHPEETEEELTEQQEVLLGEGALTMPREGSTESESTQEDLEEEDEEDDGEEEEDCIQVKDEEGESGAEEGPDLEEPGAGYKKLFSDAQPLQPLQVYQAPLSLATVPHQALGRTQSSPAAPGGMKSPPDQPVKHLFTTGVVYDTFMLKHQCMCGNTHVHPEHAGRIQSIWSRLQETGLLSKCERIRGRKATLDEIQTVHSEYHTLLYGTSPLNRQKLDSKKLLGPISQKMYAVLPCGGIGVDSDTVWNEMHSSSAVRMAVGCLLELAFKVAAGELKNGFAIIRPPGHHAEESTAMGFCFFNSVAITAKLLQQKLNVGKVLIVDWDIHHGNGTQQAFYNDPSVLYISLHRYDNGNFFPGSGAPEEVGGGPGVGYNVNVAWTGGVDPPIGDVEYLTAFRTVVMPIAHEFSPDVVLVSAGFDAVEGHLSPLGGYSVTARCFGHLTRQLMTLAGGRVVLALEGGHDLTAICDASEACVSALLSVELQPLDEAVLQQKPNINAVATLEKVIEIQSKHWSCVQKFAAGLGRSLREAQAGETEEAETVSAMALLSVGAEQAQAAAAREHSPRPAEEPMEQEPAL
Histone deacetylase 9, sequence (Q9UKV0 whole entry): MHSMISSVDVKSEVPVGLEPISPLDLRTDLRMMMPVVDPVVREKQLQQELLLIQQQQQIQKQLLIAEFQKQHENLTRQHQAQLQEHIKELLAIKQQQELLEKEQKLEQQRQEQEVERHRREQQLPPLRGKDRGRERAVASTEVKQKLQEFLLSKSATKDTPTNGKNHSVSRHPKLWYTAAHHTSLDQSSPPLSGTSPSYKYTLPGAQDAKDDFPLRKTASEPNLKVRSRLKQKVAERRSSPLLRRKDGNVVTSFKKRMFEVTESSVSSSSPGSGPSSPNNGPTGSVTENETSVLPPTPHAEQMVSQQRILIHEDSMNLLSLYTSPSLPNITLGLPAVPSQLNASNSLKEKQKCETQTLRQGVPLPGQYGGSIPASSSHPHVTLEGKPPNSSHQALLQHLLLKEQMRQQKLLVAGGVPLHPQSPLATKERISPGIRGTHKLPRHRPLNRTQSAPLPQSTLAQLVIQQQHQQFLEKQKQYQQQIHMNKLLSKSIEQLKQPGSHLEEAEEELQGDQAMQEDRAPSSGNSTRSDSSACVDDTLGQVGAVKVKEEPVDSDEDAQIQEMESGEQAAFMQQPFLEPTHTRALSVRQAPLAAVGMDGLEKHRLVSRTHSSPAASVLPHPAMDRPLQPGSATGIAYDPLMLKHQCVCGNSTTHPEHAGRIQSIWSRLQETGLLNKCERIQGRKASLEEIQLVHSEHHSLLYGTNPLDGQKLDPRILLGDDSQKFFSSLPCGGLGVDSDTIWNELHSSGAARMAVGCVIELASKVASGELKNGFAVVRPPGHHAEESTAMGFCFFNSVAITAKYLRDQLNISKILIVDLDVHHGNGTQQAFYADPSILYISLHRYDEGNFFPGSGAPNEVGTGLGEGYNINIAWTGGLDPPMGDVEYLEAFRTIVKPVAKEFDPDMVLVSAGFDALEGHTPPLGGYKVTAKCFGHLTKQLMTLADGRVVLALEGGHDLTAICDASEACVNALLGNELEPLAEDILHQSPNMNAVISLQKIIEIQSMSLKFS
Histone deacetylase 2, sequence (Q92769 whole entry): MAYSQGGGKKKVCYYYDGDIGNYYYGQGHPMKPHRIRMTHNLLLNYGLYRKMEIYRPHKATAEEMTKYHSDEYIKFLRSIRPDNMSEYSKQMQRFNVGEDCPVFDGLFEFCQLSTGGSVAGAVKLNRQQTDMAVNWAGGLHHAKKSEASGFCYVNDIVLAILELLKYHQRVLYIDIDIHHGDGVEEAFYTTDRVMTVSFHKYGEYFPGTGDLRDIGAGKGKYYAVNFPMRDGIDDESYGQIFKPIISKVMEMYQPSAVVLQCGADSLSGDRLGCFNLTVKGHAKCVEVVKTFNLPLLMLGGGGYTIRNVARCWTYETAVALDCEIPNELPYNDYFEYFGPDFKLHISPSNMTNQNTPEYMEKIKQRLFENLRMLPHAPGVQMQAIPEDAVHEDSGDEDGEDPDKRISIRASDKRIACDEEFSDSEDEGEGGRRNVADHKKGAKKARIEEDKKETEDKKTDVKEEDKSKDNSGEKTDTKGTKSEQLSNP

`CCNNC(=O)c1ccc(CN2c3ccccc3C=Cc3ccncc32)cc1` showed a concentration at 1 h in [1] of 5880 ng/mL. The outcome in the series with Mus musculus was Active. For the same compound, in series [2], the inhibition entry is “Dde”. The results for the Activity entry in the series with NCM460 and in the series with J774.A1 were “Non-Toxic” and “Dde”, respectively. Besides, the concentration at 2 h came out at 2320 ng/mL in [3] and 3280 ng/mL in [8]. Moreover, the highest level in series [4] (Cmax) was 4600 ng/mL. Also, the half-maximal inhibitory concentration (IC50) was over 5 µM at Histone deacetylase 9; over 5 µM in [7]; over 5 µM on Histone deacetylase 5; 0.051 µM in series [10]; 0.0317 µM in [11]. The compound also yielded an AUC(0-inf) in [5] of 2760 ng·h/mL. Also, the concentration at 4 h in series [6] is 162 ng/mL. Also, at Histone deacetylase 2, the inhibitory constant (Ki) was 1.04 µM. The Kp at 2 h in series [9] was found to be 1.42.

These data come from ChEMBL document CHEMBL5113527, “First-in-Class Hydrazide-Based HDAC6 Selective Inhibitor with Potent Oral Anti-Inflammatory Activity by Attenuating NLRP3 Inflammasome Activation” (J Med Chem, 2022).
